What was measured:
Assay in all cases: KinaseProfiler
Format in all cases: biochemical
Settings in all cases: 10 μM, ATP near Km
PTK6 = target: T1, PTK6 (Homo sapiens, UniProt Q13882)
T1 construct: purchased Millipore, Inc. (KinaseProfiler service)
Outline: (§1)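 10 μM compound, n=2; ATP ~Km per kinase. Readout: POC, mean of duplicates.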

SRC = target: T2, SRC (Homo sapiens, UniProt P12931)
T2 construct: purchased Millipore, Inc. (KinaseProfiler service)
Outline: as §1

CAMK2d = target: T3, CAMK2d (Homo sapiens, UniProt Q13557)
T3 construct: purchased Millipore (KinaseProfiler service)
Outline: as §1

ROCK-II = target: T4, ROCK-II (Homo sapiens, UniProt O75116)
T4 construct: purchased Millipore, Inc. (KinaseProfiler service)
T4 sequence (O75116 whole entry): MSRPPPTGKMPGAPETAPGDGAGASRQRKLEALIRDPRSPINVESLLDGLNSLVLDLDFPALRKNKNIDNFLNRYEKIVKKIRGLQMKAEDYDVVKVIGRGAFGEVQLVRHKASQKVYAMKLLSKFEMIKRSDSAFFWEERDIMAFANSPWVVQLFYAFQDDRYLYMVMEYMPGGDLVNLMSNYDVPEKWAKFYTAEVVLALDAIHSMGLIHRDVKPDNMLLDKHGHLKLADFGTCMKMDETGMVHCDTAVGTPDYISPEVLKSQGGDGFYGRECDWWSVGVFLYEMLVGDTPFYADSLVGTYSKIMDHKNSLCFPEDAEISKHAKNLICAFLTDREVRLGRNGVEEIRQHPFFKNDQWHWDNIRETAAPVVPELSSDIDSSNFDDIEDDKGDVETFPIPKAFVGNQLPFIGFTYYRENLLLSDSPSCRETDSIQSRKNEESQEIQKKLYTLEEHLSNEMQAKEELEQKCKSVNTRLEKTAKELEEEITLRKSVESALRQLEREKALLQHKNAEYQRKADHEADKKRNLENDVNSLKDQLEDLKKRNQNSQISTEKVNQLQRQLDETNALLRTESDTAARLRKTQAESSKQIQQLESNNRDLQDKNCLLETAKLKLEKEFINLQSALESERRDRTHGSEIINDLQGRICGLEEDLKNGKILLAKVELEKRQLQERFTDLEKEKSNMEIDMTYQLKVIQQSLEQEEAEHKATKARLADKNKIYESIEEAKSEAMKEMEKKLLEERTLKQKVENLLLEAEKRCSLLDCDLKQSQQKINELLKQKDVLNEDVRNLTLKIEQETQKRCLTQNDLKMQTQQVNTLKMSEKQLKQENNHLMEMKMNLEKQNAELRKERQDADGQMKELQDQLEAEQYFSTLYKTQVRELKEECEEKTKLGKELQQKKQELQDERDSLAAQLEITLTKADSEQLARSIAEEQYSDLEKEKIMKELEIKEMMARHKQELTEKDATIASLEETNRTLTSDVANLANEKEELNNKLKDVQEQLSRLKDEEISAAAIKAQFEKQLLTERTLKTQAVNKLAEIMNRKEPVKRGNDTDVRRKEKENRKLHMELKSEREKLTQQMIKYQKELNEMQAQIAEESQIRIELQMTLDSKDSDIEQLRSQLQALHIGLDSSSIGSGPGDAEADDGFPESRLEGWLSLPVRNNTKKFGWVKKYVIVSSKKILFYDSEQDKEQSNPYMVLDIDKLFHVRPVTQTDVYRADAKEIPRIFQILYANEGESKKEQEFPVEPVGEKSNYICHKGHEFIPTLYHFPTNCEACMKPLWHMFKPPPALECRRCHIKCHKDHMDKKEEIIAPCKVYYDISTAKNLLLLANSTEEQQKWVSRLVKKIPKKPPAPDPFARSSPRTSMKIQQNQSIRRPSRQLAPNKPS
Outline: as §1

MRCKbeta = target: T5, MRCKbeta (Homo sapiens, UniProt Q9Y5S2)
T5 construct: purchased Millipore, Inc. (KinaseProfiler service)
T5 sequence (Q9Y5S2 whole entry): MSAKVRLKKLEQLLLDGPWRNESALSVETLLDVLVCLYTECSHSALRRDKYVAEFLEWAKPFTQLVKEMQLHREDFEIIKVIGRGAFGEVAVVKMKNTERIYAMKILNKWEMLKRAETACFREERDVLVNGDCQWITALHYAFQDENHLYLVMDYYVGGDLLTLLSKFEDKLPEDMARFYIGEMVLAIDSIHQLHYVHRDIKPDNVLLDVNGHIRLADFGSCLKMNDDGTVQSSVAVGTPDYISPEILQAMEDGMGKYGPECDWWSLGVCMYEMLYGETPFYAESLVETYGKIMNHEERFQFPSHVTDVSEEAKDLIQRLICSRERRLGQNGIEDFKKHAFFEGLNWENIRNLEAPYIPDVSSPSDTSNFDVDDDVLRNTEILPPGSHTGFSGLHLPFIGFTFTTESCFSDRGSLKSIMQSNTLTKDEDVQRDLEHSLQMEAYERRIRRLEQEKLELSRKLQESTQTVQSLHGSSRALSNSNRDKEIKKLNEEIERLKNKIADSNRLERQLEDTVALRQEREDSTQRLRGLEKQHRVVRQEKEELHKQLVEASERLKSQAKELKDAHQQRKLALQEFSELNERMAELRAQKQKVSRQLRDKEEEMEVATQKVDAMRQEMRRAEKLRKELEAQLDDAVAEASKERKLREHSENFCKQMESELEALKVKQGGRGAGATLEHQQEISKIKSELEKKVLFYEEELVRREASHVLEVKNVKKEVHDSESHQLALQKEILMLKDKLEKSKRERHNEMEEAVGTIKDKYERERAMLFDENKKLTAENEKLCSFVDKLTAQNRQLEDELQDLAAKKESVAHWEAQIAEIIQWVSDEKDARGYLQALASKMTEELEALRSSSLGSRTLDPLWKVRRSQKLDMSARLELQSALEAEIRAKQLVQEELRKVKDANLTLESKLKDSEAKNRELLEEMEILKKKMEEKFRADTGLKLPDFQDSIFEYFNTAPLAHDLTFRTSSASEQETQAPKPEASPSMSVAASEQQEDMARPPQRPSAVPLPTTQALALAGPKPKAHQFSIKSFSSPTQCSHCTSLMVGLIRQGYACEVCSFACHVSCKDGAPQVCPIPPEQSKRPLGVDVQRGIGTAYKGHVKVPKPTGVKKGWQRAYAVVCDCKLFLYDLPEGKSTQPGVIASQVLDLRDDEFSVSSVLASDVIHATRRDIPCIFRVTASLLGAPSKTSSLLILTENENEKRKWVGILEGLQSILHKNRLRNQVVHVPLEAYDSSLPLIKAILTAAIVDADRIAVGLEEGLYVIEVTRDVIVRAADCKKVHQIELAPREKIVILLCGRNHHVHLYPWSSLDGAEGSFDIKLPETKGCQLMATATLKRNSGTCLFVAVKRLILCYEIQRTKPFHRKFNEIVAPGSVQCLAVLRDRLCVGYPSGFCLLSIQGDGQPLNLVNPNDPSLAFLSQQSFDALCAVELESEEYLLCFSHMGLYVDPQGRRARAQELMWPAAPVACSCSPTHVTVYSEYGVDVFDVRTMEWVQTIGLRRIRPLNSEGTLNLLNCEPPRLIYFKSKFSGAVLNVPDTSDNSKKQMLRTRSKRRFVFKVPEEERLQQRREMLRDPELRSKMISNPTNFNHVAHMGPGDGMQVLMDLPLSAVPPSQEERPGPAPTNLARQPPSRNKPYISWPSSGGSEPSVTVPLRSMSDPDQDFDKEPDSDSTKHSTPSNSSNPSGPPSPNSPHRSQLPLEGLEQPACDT
Outline: as §1

PAK5 = target: T6, PAK5 (Homo sapiens, UniProt Q9P286)
T6 construct: purchased Millipore, Inc. (KinaseProfiler service)
Outline: as §1

CDK5/p25 = target: T7, CDK5/p25 (Homo sapiens, UniProt Q00535)
T7 construct: purchased Millipore, Inc. (KinaseProfiler service)
Outline: as §1

TNK2 = target: T8, TNK2 (Homo sapiens, UniProt Q07912)
T8 construct: purchased Millipore, Inc. (KinaseProfiler service)
Outline: as §1

VRK2 = target: T9, VRK2 (Homo sapiens, UniProt Q86Y07)
T9 construct: purchased Millipore, Inc. (KinaseProfiler service)
Outline: as §1

Haspin = target: T10, Haspin (Homo sapiens, UniProt Q8TF76)
T10 construct: purchased Millipore, Inc. (KinaseProfiler service)
Outline: as §1

JNKlalpha1 = target: T11, JNKlalpha1 (Homo sapiens, UniProt P45983)
T11 construct: purchased Millipore, Inc. (KinaseProfiler service)
Outline: as §1

Ab12 = target: T12, Ab12 (Homo sapiens, UniProt P42684)
T12 construct: purchased Millipore (KinaseProfiler service)
Outline: as §1

BLK_m = target: T13, BLK_m (Mus musculus, UniProt P16277)
T13 construct: purchased Millipore (KinaseProfiler service)
Outline: as §1

RIPK2 = target: T14, RIPK2 (Homo sapiens, UniProt O43353)
T14 construct: purchased Millipore, Inc. (KinaseProfiler service)
Outline: as §1

EphB3 = target: T15, EphB3 (Homo sapiens, UniProt P54753)
T15 construct: purchased Millipore, Inc. (KinaseProfiler service)
Outline: as §1

TSSK1 = target: T16, TSSK1 (Homo sapiens, UniProt Q9BXA7)
T16 construct: purchased Millipore, Inc. (KinaseProfiler service)
Outline: as §1

PRKG1alpha = target: T17, PRKG1alpha (Homo sapiens, UniProt Q13976)
T17 construct: purchased Millipore, Inc. (KinaseProfiler service)
Outline: as §1

MAPKAP-K2 = target: T18, MAPKAP-K2 (Homo sapiens, UniProt P49137)
T18 construct: purchased Millipore, Inc. (KinaseProfiler service)
Outline: as §1

CDK2/cyclinE = target: T19, CDK2/cyclinE (Homo sapiens, UniProt P24941)
T19 construct: purchased Millipore, Inc. (KinaseProfiler service)
Outline: as §1

Plk2 = target: T20, Plk2 (Homo sapiens, UniProt Q9NYY3)
T20 construct: purchased Millipore, Inc. (KinaseProfiler service)
Outline: as §1

AKT2 = target: T21, AKT2 (Homo sapiens, UniProt P31751)
T21 construct: purchased Millipore (KinaseProfiler service)
Outline: as §1

GRK6 = target: T22, GRK6 (Homo sapiens, UniProt P43250)
T22 construct: purchased Millipore, Inc. (KinaseProfiler service)
Outline: as §1

BrSK2 = target: T23, BrSK2 (Homo sapiens, UniProt Q8IWQ3)
T23 construct: purchased Millipore (KinaseProfiler service)
Outline: as §1

MAPKAP-K3 = target: T24, MAPKAP-K3 (Homo sapiens, UniProt Q16644)
T24 construct: purchased Millipore, Inc. (KinaseProfiler service)
Outline: as §1

MuSK = target: T25, MuSK (Homo sapiens, UniProt O15146)
T25 construct: purchased Millipore, Inc. (KinaseProfiler service)
Outline: as §1

c-RAF = target: T26, c-RAF (Homo sapiens, UniProt P04049, Y340D/Y341D)
T26 construct: purchased Millipore, Inc. (KinaseProfiler service)
Outline: as §1

CSK = target: T27, CSK (Homo sapiens, UniProt P41240)
T27 construct: purchased Millipore, Inc. (KinaseProfiler service)
Outline: as §1

FGFR1 = target: T28, FGFR1 (Homo sapiens, UniProt P11362)
T28 construct: purchased Millipore, Inc. (KinaseProfiler service)
Outline: as §1

TBK1 = target: T29, TBK1 (Homo sapiens, UniProt Q9UHD2)
T29 construct: purchased Millipore, Inc. (KinaseProfiler service)
Outline: as §1

Flt1 = target: T30, Flt1 (Homo sapiens, UniProt P17948)
T30 construct: purchased Millipore, Inc. (KinaseProfiler service)
Outline: as §1

FGFR2 = target: T31, FGFR2 (Homo sapiens, UniProt P21802)
T31 construct: purchased Millipore, Inc. (KinaseProfiler service)
T31 sequence (P21802 22-821): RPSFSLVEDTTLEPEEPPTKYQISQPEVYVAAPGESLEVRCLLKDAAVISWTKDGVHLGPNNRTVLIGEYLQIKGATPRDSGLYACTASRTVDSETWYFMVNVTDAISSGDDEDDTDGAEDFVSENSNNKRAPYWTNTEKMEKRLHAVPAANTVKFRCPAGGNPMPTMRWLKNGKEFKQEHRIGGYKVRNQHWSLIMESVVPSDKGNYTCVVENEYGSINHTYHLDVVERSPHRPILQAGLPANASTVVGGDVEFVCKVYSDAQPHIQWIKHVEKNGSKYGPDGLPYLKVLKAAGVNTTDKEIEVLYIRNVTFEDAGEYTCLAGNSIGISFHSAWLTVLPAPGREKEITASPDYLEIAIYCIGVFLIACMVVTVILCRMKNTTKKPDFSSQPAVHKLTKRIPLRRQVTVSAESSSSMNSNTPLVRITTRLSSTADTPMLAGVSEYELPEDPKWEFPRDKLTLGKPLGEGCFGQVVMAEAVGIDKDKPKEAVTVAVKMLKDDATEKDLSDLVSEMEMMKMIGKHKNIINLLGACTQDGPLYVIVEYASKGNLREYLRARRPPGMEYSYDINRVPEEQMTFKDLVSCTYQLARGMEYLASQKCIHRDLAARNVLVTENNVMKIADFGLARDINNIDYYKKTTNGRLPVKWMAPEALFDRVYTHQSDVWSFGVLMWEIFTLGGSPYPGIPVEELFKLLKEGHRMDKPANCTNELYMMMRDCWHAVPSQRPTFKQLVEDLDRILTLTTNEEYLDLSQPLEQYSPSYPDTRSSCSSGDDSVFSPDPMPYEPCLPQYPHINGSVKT
Outline: as §1

JNK2alpha2 = target: T32, JNK2alpha2 (Homo sapiens, UniProt P45984)
T32 construct: purchased Millipore, Inc. (KinaseProfiler service)
Outline: as §1

MARK1 = target: T33, MARK1 (Homo sapiens, UniProt Q9P0L2)
T33 construct: purchased Millipore, Inc. (KinaseProfiler service)
Outline: as §1

CDK1/cyclinB = target: T34, CDK1/cyclinB (Homo sapiens, UniProt P06493)
T34 construct: purchased Millipore (KinaseProfiler service)
Outline: as §1

PKCzeta = target: T35, PKCzeta (Homo sapiens, UniProt Q05513)
T35 construct: purchased Millipore, Inc. (KinaseProfiler service)
Outline: as §1

MSK1 = target: T36, MSK1 (Homo sapiens, UniProt O75582)
T36 construct: purchased Millipore, Inc. (KinaseProfiler service)
Outline: as §1

AMPK(A1/B1/G1) = target: T37, AMPK(A1/B1/G1) (Homo sapiens, UniProt Q13131)
T37 construct: purchased Millipore (KinaseProfiler service)
Outline: as §1

NEK11 = target: T38, NEK11 (Homo sapiens, UniProt Q8NG66)
T38 construct: purchased Millipore, Inc. (KinaseProfiler service)
Outline: as §1

Txk = target: T39, Txk (Homo sapiens, UniProt P42681)
T39 construct: purchased Millipore, Inc. (KinaseProfiler service)
Outline: as §1

JNK3 = target: T40, JNK3 (Homo sapiens, UniProt P53779)
T40 construct: purchased Millipore, Inc. (KinaseProfiler service)
T40 sequence (P53779 whole entry): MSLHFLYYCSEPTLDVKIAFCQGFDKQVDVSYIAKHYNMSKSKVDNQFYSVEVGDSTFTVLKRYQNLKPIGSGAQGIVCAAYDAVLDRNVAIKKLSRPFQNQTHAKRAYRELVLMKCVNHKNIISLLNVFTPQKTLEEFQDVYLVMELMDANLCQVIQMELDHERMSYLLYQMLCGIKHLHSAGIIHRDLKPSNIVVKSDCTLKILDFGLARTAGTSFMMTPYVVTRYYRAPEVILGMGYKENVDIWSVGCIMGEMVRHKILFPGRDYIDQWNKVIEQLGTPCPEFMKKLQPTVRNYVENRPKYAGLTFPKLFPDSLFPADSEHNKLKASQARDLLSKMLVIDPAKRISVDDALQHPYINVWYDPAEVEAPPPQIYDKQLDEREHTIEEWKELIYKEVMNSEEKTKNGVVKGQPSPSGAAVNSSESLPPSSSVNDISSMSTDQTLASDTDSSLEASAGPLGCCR
Outline: as §1

T2 sequence (P12931 whole entry): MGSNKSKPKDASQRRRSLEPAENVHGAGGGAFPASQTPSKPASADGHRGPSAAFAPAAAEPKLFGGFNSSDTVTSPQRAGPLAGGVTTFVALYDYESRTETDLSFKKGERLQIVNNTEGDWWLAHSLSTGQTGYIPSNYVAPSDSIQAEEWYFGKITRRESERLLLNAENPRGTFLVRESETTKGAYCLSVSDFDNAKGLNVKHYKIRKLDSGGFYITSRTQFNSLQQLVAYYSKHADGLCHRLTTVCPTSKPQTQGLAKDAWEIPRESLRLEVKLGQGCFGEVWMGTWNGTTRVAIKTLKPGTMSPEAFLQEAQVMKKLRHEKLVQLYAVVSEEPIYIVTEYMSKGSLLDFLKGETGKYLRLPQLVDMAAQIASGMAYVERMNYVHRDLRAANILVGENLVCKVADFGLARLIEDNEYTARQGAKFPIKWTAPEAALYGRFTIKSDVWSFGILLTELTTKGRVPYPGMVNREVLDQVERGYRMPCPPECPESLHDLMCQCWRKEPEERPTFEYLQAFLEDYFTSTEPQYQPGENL

## COCCCc1cc(Cl)c(Cl)cc1NC(=O)Nc1c(C)c(-c2cnn(C)c2)nn1-c1ccccc1 [Example 15, 1-(4,5-dichloro-2-(3-methoxypropyl)phenyl)-3-(1′,4-dimethyl-1-phenyl-1H,1′H-[3,4′-bipyrazol]-5-yl)urea]
PTK6
  Avg POC: 124 POC
SRC
  Avg POC: 90 POC
CAMK2d
  Avg POC: 135.5 POC
ROCK-II
  Avg POC: 99 POC
MRCKbeta
  Avg POC: 105.5 POC
PAK5
  Avg POC: 132.5 POC
CDK5/p25
  Avg POC: 106 POC
TNK2
  Avg POC: 124 POC
VRK2
  Avg POC: 94 POC
Haspin
  Avg POC: 121.5 POC
JNKlalpha1
  Avg POC: 107 POC
Ab12
  Avg POC: 108 POC
BLK_m
  Avg POC: 118.5 POC
RIPK2
  Avg POC: 102 POC
EphB3
  Avg POC: 78.5 POC
TSSK1
  Avg POC: 80 POC
PRKG1alpha
  Avg POC: 113.5 POC
MAPKAP-K2
  Avg POC: 129.5 POC
CDK2/cyclinE
  Avg POC: 106.5 POC
Plk2
  Avg POC: 105 POC
AKT2
  Avg POC: 166.5 POC
GRK6
  Avg POC: 103 POC
BrSK2
  Avg POC: 123 POC
MAPKAP-K3
  Avg POC: 112.5 POC
MuSK
  Avg POC: 100 POC
c-RAF
  Avg POC: 98.5 POC
CSK
  Avg POC: 139 POC
FGFR1
  Avg POC: 111.5 POC
TBK1
  Avg POC: 110 POC
Flt1
  Avg POC: 97.5 POC
FGFR2
  Avg POC: 108 POC
JNK2alpha2
  Avg POC: 92 POC
MARK1
  Avg POC: 107 POC
CDK1/cyclinB
  Avg POC: 97 POC
PKCzeta
  Avg POC: 103 POC
MSK1
  Avg POC: 132.5 POC
AMPK(A1/B1/G1)
  Avg POC: 149 POC
NEK11
  Avg POC: 75 POC
Txk
  Avg POC: 135.5 POC
JNK3
  Avg POC: 104 POC

Reference: patent US9790210B2, “N-(monocyclic aryl),N'-pyrazolyl-urea, thiourea, guanidine and cyanoguanidine compounds as TrkA kinase inhibitors” (Array BioPharma Inc., priority 2012, dated 2017)
